Data on 19 molecules can be found in patent US8791144B2, “Substituted N-phenyl-1-(4-Pyridinyl)-1H-pyrazol-3-amines” (Janssen Pharmaceutica NV, priority 2009, dated 2014).

The target of one data set is hα7-wt nAChR (Homo sapiens, UniProt P36544). Kind of data set: Ca2+ flux imaging (FDSS): potentiation of the choline response. Type of data set: cell-based. The settings on record: Ca2+ assay as described in D.1, potentiation of choline response, hα7-wt nAChR; for Emax: read-out: % Efficacy; for EC50: read-out: Potency (pEC50) (converted). As to the method: • a) Assay Buffer • Hanks buffered saline solution (HBSS, Invitrogen, Belgium), supplemented with 10 mM HEPES (Invitrogen, Belgium), CaCl2 to a final concentration of 5 mM, 0.1% Bovine serum albumin (Sigma-Aldrich NV, Belgium). • b) Calcium-Sensitive Dye—Fluo-4AM • Fluo-4AM (Molecular Probes, USA) was dissolved in DMSO containing 10% Pluronic acid (Molecular Probes, USA) to give a stock solution which was diluted in assay buffer supplemented with 5 mM probenicid (Sigma, Aldrich NV, Belgium) to give a final concentration of 2 μM. • c) 384-Well Plates • Black 384 well plate black/clear plates, PDL pre-coated (Corning, Incorporated, USA) • d) Calcium Flux Measurement • A Functional drug screening system (FDSS, Hamamatsu) was used to measure intracellular free-calcium flux signals. Method
Monolayers of hα7-wt nAChR-expressing cells were grown in multi-well plates, in particular black-sided, transparent bottomed 384 well plates coated with poly-D-lysine for 24 hours prior to loading with a fluorescent calcium indicator, in a particular embodiment loading with fluo-4AM for up to 120 minutes.
PAM activity was detected in real time by applying the compounds to be tested to the loaded cells along with a α7 nicotinic receptor agonist during constant monitoring of cellular fluorescence in a FDSS. Compounds giving peak fluorescent responses greater than the response due to agonist alone, were considered to be α7 nAChR PAM's. In a particular embodiment, the α7 nicotinic receptor agonist was choline, a more particular embodiment choline applied at a sub-maximal concentration of 100 μM. In a further setting of the present invention the compounds to be tested were applied prior to the α7 nicotinic receptor agonist, in a particular embodiment up to 10 minutes prior to the agonist.
A control response to choline was calculated on each plate from the difference in peak in fluorescence in wells receiving either choline or assay buffer alone. Compounds of the present invention were tested at a concentration range from 0.01 μM to 30 μM. Compounds were considered to have an interesting activity when they potentiated the choline signal at least with 200% when tested at a concentration of 30 μM (the efficacy of 100 μM choline was defined as 100% in the absence of a PAM). An EC50 (or pEC50) was determined as a concentration relating to half the maximal effect, when a clear sigmoidal curve with top plateau was obtained.
(Calcium assays in cells follow changes in intracellular calcium, usually with a dye or a luminescent sensor.)

hα7-wt nAChR, sequence (P36544 23-502): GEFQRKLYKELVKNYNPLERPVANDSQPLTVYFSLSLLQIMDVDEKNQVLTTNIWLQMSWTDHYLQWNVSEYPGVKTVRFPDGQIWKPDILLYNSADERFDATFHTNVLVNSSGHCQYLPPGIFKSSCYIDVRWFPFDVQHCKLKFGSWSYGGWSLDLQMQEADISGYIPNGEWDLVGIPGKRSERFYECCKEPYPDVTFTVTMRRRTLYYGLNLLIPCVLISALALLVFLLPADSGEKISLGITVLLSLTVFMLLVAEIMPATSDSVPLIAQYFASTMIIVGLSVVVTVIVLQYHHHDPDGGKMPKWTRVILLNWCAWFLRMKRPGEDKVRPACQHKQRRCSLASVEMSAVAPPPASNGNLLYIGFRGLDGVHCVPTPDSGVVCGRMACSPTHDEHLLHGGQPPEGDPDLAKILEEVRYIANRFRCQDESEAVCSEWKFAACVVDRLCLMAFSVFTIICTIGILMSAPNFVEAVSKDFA

Consider `Cc1cc(-n2nc(Nc3cccc(Cl)c3F)cc2CC#N)ccn1` [Compound 63, 3-[(3-chloro-2-fluorophenyl)amino]-1-(2-methyl-4-pyridinyl)-1H-pyrazole-5-acetonitrile], for which, on hα7-wt nAChR, the Emax stood at 434% and the EC50 is 3890 nM. For `Cc1cc(-n2nc(Nc3ccc(F)c(F)c3)cc2CCCOCc2ccccc2)ccn1` [Compound 32, N-(3,4-difluorophenyl)-1-(2-methyl-4-pyridinyl)-5-[3-(phenylmethoxy)propyl]-1H-pyrazol-3-amine], the melting point (in general, the temperature of the solid-liquid transition) turned out to be 108.2 °C. Further, the EC50 on hα7-wt nAChR is 1020 nM. With `CC[C@@H](O)Cc1cc(Nc2cc(Cl)cc(OC)c2)nn1-c1ccnc(C)c1` [Compound 62, (alphaR)-3-[(3-chloro-5-methoxyphenyl)amino]-alpha-ethyl-1-(2-methyl-4-pyridinyl)-1H-pyrazole-5-ethanol], the melting point is 121.9 °C. The EC50 at hα7-wt nAChR is 427 nM. Consider `Cc1cc(-n2nc(Nc3cccc(C(F)(F)F)c3)cc2CC#N)ccn1` [Compound 40, 1-(2-methyl-4-pyridinyl)-3-[[3-(trifluoromethyl)phenyl]amino]-1H-pyrazole-5-acetonitrile], for which the EC50 on hα7-wt nAChR is 4370 nM.

`CNC(=O)Cc1cc(Nc2ccc3c(c2)OC(F)(F)O3)nn1-c1ccnc(C)c1` [Compound 97, 3-[(2,2-difluoro-1,3-benzodioxol-5-yl)amino]-N-methyl-1-(2-methyl-4-pyridinyl)-1H-pyrazole-5-acetamide] came in with a melting point of 271.2 °C. Also, the EC50 on hα7-wt nAChR was 2510 nM.

For the molecule `COc1cc(Nc2cc(CCCO)n(-c3ccnc(C)c3)n2)cc(C(F)(F)F)c1` [Compound 7, 3-[[3-methoxy-5-(trifluoromethyl)phenyl]amino]-1-(2-methyl-4-pyridinyl)-1H-pyrazole-5-propanol], the EC50 at hα7-wt nAChR was 2880 nM. Regarding `Cc1cc(-n2nc(Nc3cccc(OC(F)(F)F)c3)cc2COCc2ccccc2)ccn1` [Compound 122, 1-(2-methyl-4-pyridinyl)-5-[(phenylmethoxy)methyl]-N-[3-(trifluoromethoxy)phenyl]-1H-pyrazol-3-amine], the melting point stood at 139.8 °C. For the same molecule, the EC50 on hα7-wt nAChR is 372 nM. In the case of `CC[C@@H](O)Cc1cc(Nc2ccc(F)c(F)c2F)nn1-c1ccnc(C)c1` [Compound 13, (alphaR)-alpha-ethyl-1-(2-methyl-4-pyridinyl)-3-[(2,3,4-trifluorophenyl)amino]-1H-pyrazole-5-ethanol], the melting point came out at 144.4 °C. Moreover, at hα7-wt nAChR, the EC50 was 316 nM. The molecule `Cc1cc(-n2nc(Nc3ccc(F)c(F)c3)cc2C)ccn1` [Compound 14, N-(3,4-difluorophenyl)-5-methyl-1-(2-methyl-4-pyridinyl)-1H-pyrazol-3-amine] came in with a melting point of 169.2 °C. Moreover, the EC50 on hα7-wt nAChR is 3390 nM. The like results for `Cc1cc(-n2nc(Nc3cccc(OC(F)(F)F)c3)cc2CC#N)ccn1` [Compound 107, 1-(2-methyl-4-pyridinyl)-3-[[3-(trifluoromethoxy)phenyl]amino]-1H-pyrazole-5-acetonitrile] were, in that order, 180.2 °C and 2820 nM.

The molecule `COc1cc(Nc2cc(COCc3ccccc3)n(-c3ccnc(C)c3)n2)cc(C(F)(F)F)c1` [Compound 1, N-[3-methoxy-5-(trifluoromethyl)phenyl]-1-(2-methyl-4-pyridinyl)-5-[(phenylmethoxy)methyl]-1H-pyrazol-3-amine] showed a melting point of 148.1 °C. The EC50 at hα7-wt nAChR is 1450 nM. `CNC(=O)Cc1cc(Nc2ccc(F)c(F)c2)nn1-c1ccnc(C)c1` [Compound 27, 3-[(3,4-difluorophenyl)amino]-N-methyl-1-(2-methyl-4-pyridinyl)-1H-pyrazole-5-acetamide]: the melting point was 252.9 °C. `Cc1cc(-n2nc(Nc3ccc4c(c3)OC(F)(F)O4)cc2CCCOCc2ccccc2)ccn1` [Compound 104, N-(2,2-difluoro-1,3-benzodioxol-5-yl)-1-(2-methyl-4-pyridinyl)-5-[3-(phenylmethoxy)propyl]-1H-pyrazol-3-amine] registered a melting point of 124.4 °C. In addition, the EC50 at hα7-wt nAChR was 562 nM. For `CC[C@@H](O)Cc1cc(Nc2cccc(Cl)c2F)nn1-c1ccnc(C)c1` [Compound 59, (alphaR)-3-[(3-chloro-2-fluorophenyl)amino]-alpha-ethyl-1-(2-methyl-4-pyridinyl)-1H-pyrazole-5-ethanol], in that order: 168.1 °C and 692 nM. As to `Cc1cc(-n2nc(Nc3ccc(F)c(F)c3)cc2CO)ccn1` [Compound 15, 3-[(3,4-difluorophenyl)amino]-1-(2-methyl-4-pyridinyl)-1H-pyrazole-5-methanol], the melting point was determined as 155.3 °C. Also, on hα7-wt nAChR, the EC50 is 2820 nM.

Turning to `CC[C@@H](O)Cc1cc(Nc2cc(F)cc(Cl)c2)nn1-c1ccnc(C)c1` [Compound 60, (alphaR)-3-[(3-chloro-5-fluorophenyl)amino]-alpha-ethyl-1-(2-methyl-4-pyridinyl)-1H-pyrazole-5-ethanol], the melting point was determined as 182.4 °C. The EC50 on hα7-wt nAChR is 240 nM. `COC(=O)Cc1cc(Nc2cccc(OC(F)(F)F)c2)nn1-c1ccnc(C)c1` [Compound 109, 1-(2-methyl-4-pyridinyl)-3-[[3-(trifluoromethoxy)phenyl]amino]-1H-pyrazole-5-acetic acid methyl ester] had a melting point of 115.8 °C. Moreover, the EC50 on hα7-wt nAChR was 2000 nM.

For `CC[C@@H](O)Cc1cc(Nc2cc(F)c(F)c(F)c2)nn1-c1ccnc(C)c1` [Compound 19, (alphaR)-alpha-ethyl-1-(2-methyl-4-pyridinyl)-3-[(3,4,5-trifluorophenyl)amino]-1H-pyrazole-5-ethanol], the melting point was 170.4 °C. Moreover, on hα7-wt nAChR, the Emax is 705% and the EC50 was 309 nM. The like results for `COc1cc(Nc2cc(CC#N)n(-c3ccnc(C)c3)n2)cc(C(F)(F)F)c1` [Compound 3, 3-[[3-methoxy-5-(trifluoromethyl)phenyl]amino]-1-(2-methyl-4-pyridinyl)-1H-pyrazole-5-acetonitrile] were, in that order, 183.8 °C, 930% and 1950 nM.
